From publication PMC8589628, “Characterization and Antimicrobial Studies of Iturin-Like and Bogorol-Like Lipopeptides From Brevibacillus spp. Strains GI9 and SKDU10” (Frontiers in Microbiology, 2021)
Like-named read-outs stand apart in the source and are kept apart here. Peptide text beside a SMILES is read from it. * marks the point of attachment. X1 = CC(C)CCCCCCCCCCCCC(=O)*

Assays:
[1] = test system: S. aureus MTCC 1430; assay: TLC-bioautography assay; format: cell-based, Staphylococcus aureus; details: 10 μg/ml loaded on TLC silica gel; overlay on NA, 24 h at 37°C
Procedure: Overlay thin-layer chromatography (TLC)-bioautography assay was used to determine the antimicrobial activity of the purified antimicrobial compounds ([Wedge and Nagle, 2000]). For bioautography, the antimicrobial compounds (10 μg/ml) were loaded on TLC silica gel plates in duplicates and were developed in one dimension using a solvent system containing chloroform: […]: water (65:12:4 v/v). TLC plate was cut into two vertical parts after running. One part of the TLC was used for direct detection of antimicrobial activity by overlaying it on NA containing S. aureus MTCC 1430 (about 10^6 cells ml^–1). After 1 h diffusion at 4°C, the TLC silica plate was removed and the NA plate was incubated for 24 h at 37°C. Other part of the TLC was sprayed with phosphomolybdic acid as a staining reagent for lipids.

[2] = Collapse drop assay (CDA); format: physicochemical; details: 5 μl of 10 μg/ml stock on mineral oil droplet, observed after 1 min
Procedure: (§1) Collapse Drop Assay (CDA) was performed as mentioned earlier ([Sharma et al., 2020]). To a well of 96 well microtiter plate, 2 μl mineral oil was added and equilibrated at 37°C for 24 h. Purified lipopeptide (5 μl of 10 μg/ml stock) was applied to the top of oil droplet and its shape was observed after 1 min with a magnifying glass for collapse and spread due to reduction in surface tension. Water and triton X-100 served as controls ([Youssef et al., 2004]). To determine critical micelle concentration (CMC), different concentrations of purified lipopeptides were prepared and surface tension was measured on a tensiometer (KRUSS K10T, Germany) at room temperature. The values for CMC were estimated by plotting surface tension as a function of concentration of lipopeptides. A point of intersection was located between the pre and post CMC data plot. The mean value of triplicate experiments was used to increase the accuracy. Concentrations ranging from 0.1 to 1000 μg/ml were used to determine surface tension on a tensiometer.

[3] = test system: A. brassicicola MTCC 2102; assay: Protection of tomato slices and grapes from fungal spores; parameters: species or system Alternaria brassicicola; details: 500 μl of 2 mg/ml lipopeptide, then 50 μl spore suspension (10^7 conidia per ml); 25°C, 4 days; three replicates
Procedure: The surface of the tomatoes and grapes was sterilized with 5% NaOCl for 5 min and rinsed three times with plenty of sterile water. After sterilization, tomatoes were cut into slices and wounds of 3 mm were inflicted with a sterile scalpel on the surface of the grapes. Tomato slices and grapes were divided into four groups. Contents of group 1 were treated with water only (negative control). Contents of group 2 were treated with 50 μl of a spore suspension (spores 10^7 conidia per ml) of A. brassicicola MTCC 2102 (positive control without treatment). Contents of group 3 were first treated with 500 μl of 2 mg/ml solution of purified lipopeptides separately and after adsorption of lipopeptides, fungal spores were added. Contents of the fourth group were treated with purified lipopeptides only without addition of fungal spores. Tomato slices and grapes from all four groups were incubated at 25°C under controlled humidity conditions for 4 days and observed. Each treatment was performed with three biological and technical replicates.

[4] = test system: S. aureus MTCC 1430; assay: TEM of treated cells; format: cell-based, Staphylococcus aureus; details: S. aureus MTCC 1430, 1X MIC, 30 min, 37°C
Procedure: Effect of antimicrobial compounds on cell membrane of test organisms was determined by transmission electron microscopy (TEM). Test strains, S. aureus MTCC 1430, V. cholerae MTCC 3904, and C. albicans MTCC 183 were cultured to mid-log phase, washed, and re-suspended in 1X PBS (OD 600 nm 0.2). The cell suspensions were incubated (37°C) with 1X MIC of purified antimicrobial compounds for 30 min. Cells after treatment were centrifuged, washed twice with PBS. For TEM, cells of S. aureus MTCC 1430 and V. cholerae MTCC 3904 were subjected to negative stain with 0.1% (w/v) sodium phosphotungstate (PTA, Sigma, United States) in water for 1 min, on a carbon-coated copper grid with 300 mesh (Polyscience, United States) and observed under transmission electron microscope (JEOL JEM 2100, United States) ([Raje et al., 2006]). For SEM, C. albicans MTCC 183 cells were immobilized on poly L-lysine glazed glass slides and incubated at 4°C for 2 h. Cells were fixed using Karnovsky’s fixative and serially dehydrated with gradient of ethanol, freeze dried, and platinum coated. ZEISS EV040 (United States) scanning electron microscope was employed to photograph the cells ([Raje et al., 2006]). Spores of A. brassicicola MTCC 2102 were treated with 2X MIC of lipopeptides for 2 h and observed under phase-contrast microscope (Nickon H600L, Japan). […]

[5] = test system: B. subtilis MTCC 121; format: cell-based, Bacillus subtilis
Procedure: The antimicrobial activity of HPLC purified compounds was determined against various test strains including S. aureus MTCC 1430, Vibrio cholera MTCC 3904, Bacillus subtilis MTCC 121, Listeria monocytogenes MTCC 839, C. albicans MTCC 183, C. albicans MTCC 1637, C. albicans MTCC 227, C. tropicalis MTCC 184, C. glabrata MTCC 3019, and C. inconspicua MTCC 1074. Antimicrobial activity was also tested against clinical Candida strains and phytopathogenic fungi viz. Fusarium moniliforme MTCC 158, Alternaria brassicicola MTCC 2102 and Colletotrichum acutatum MTCC 1037. Bacterial and Candida test strains were grown in NB and yeast malt broth (YMB), respectively. Fungal test strains were grown in potato dextrose broth (PDB). Minimum inhibitory concentrations (MICs) of purified compounds were evaluated against test organisms by using a microtiter plate dilution assay. Mid-log-phase test strains (5 × 10^5 CFU/ml) were incubated in a 96-well plate with different concentrations of the lipopeptides for 24–48 h at 37°C (final volume of 200 μl). OD was measured at 600 nm after 24 and 48 h for bacteria and yeast, respectively, using an ELISA microplate reader (Thermo Scientific, United States). MIC against phytopathogenic fungi was determined using the 96-well microtiter plate method ([Sharma et al., 2020]).

[6] = Critical micelle concentration by tensiometer; format: physicochemical; details: surface tension by tensiometer at room temperature, 0.1 to 1000 μg/ml, mean of triplicate experiments
Procedure: as §1

Dhb-Tyr-Orn-Ile-Val-Val-Lys-Val-Leu-Asp-Val-Glu [BLL, bogorol like lipopeptide purified from Brevibacillus sp. strain SKDU10; 12 amino acids and C17 hydroxy fatty acid side chain]
Inhibition of S. aureus MTCC 1430 in TLC-based bioautography [1]: active against S. aureus MTCC 1430 | Collapse drop assay reaction [2]: positive reaction | Fungal growth on the surface of treated tomato and grape slices inoculated with spores [3]: no fungal growth | Effect on cells (TEM) [4]: irregularities in structure with rupturing of cell wall and lysis | MIC value ([5]; B. subtilis MTCC 121, NB, 5 × 10^5 CFU/ml, 37°C, OD 600 nm after 24 h, 10–550 μg/ml in 5 μg/ml increments): 225 to 235 µg/mL | CMC (critical micelle concentration) [6]: 110 µg/mL

CC(C)CCCCCCCCCCCCC(=O)N[C@H](C(=O)NCC(=O)N[C@@H](C)C(=O)N[C@@H](CO)C(=O)N[C@@H](Cc1c[nH]cn1)C(=O)N[C@@H](CCC(N)=O)C(=O)N[C@@H](CCC(N)=O)C(=O)O)[C@@H](C)O [ILL] (X1-TGASHQQ-OH; N-terminus assumed)
Inhibition of S. aureus MTCC 1430 in TLC-based bioautography [1]: inhibited S. aureus MTCC 1430 | Collapse drop assay reaction [2]: positive reaction | Fungal growth on the surface of treated tomato and grape slices inoculated with spores [3]: no fungal growth | Effect on cells (TEM) [4]: lysis with accumulation of debris on cell surface, altered morphology, and shrinkage | MIC value ([5]; MTCC 121, 24 h): 260 to 270 µg/mL | CMC (critical micelle concentration) [6]: 90 µg/mL
